According to patent US10472346B2, “Potent gamma-secretase modulators” (The General Hospital Coporation, priority 2014, dated 2019):
Entries after “also recorded” stand apart in the source; their conditions may differ.

Legend:
Aβ42 = Aβ42 IC50 assay (SHSYSY-APP cell-based screening, UCSD sandwich Aβ42 ELISA)
Description: FIG. 8: Representative concentration response curves of Compound 1 using our primary and orthogonal medium throughput SHSYSY-APP cell-based screening assays (10). Compounds are first screened two times in triplicate in our UCSD sandwich Aβ42 ELISA on sequential days and the average of the two assays must be within 3-fold of each other before being entered into the CDD relational database. The UCSD sandwich ELISA assay can easily handle 20 compounds per week. Compounds with Aβ42 IC50 values <100 nM continue through the testing funnel. The Z′ score and the % CV for the UCSD Aβ42 sandwich ELISA assay are 0.8 and 4, respectively. For the Meso Scale triplex assay the Z′ scores are 0.7, 0.9 and 0.6 Aβ42, Aβ40 and Aβ38, respectively and the % CV's are 7, 2 and 1 for Aβ42, Aβ40 and Aβ38, respectively. Aβ total peptides are measured using a sandwich ELISA.
Tabular Results of A1142 Assays Conducted on Compounds of Examples 5-102. Assays are Aβ42 IC50 (nM).

Notch processing = Notch processing in transfected H4-APP751 cells (Western blot, Myc antibody, NICD); assay type: cell-based, human; details: 24 hrs; for Notch processing (NICD levels, Western blot): H4-APP751 cells transfected with the Notch NδED construct, 40 nM, 200 nM, 1000 nM, and 5000 nM
Description: Cells were harvested 48 hrs post transfection and applied to Western blotting analysis. Myc antibody was utilized to assess the NAED and NICD tagged with Myc on their N-termini. β-Actin was utilized as the loading control.
Cells were harvested 48 hrs post transfection and subjected to Western blotting analysis. Myc antibody was utilized to assess the NδED and NICD tagged with Myc on their N-termini.
Stable H4 human neuroglioma cells over-expressing human APP751, or H4-APP751 cells, were transfected with the NAE construct, and then treated with different concentrations SGSM Compound 1 (Lanes 1-6) or DAPT (Lanes 7-10) for another 24 hrs and are shown in FIG. 9. Cells were harvested 48 hrs post transfection and applied to Western blotting analysis. Myc antibody was utilized to assess the NAED and NICD tagged with Myc on their N-termini β-Actin was utilized as the loading control.
Stably-transfected H4 human neuroglioma cells over-expressing human APP751 (H4-APP751) cells, were transfected with the Notch NδED construct, and then treated with vehicle, or different doses of GSMs (40 nM, 200 nM, 1000 nM, and 5000 nM) for 24 hrs. Cells were harvested 48 hrs post transfection and subjected to Western blotting analysis.

IC50 (Aβ42)	melting point	SMILES	Notch processing (NICD, Western blot) (Notch processing; H4-APP751 cells transfected with the NAE construct, different concentrations)	Notch processing (NICD levels, Western blot) (Notch processing)
7.1 nM	99 to 102 °C	COc1nc(-c2cc(C)c(N[C@@H]3C[C@H]3c3ccccc3)nn2)ccc1-n1cnc(C)c1 (racemic) [Example 72, (+/−)-trans-6-(6-methoxy-5-(4-methyl-1H-imidazol-1-yl)pyridin-2-yl)-4-methyl-N-(2-phenylcyclopropyl)pyridazin-3-amine]		
	> 250 °C	COc1nc(-c2ccc(N)nn2)ccc1-n1cnc(C)c1 [Example 24A, 6-(6-Methoxy-5-(4-methyl-1H-imidazol-1-yl)pyridin-2-yl)pyridazin-3-amine]		
4.3 nM		COc1nc(-c2cc(C)c(N[C@@H](C)c3ccccc3F)nn2)ccc1-n1cnc(C)c1 [Example 34, (S)—N-(1-(2-fluorophenyl)ethyl)-6-(6-methoxy-5-(4-methyl-1H-imidazol-1-yl)pyridin-2-yl)-4-methylpyridazin-3-amine]		did not decrease the NICD levels at all concentrations studied; also recorded: not inhibit Notch processing
2.5 nM		COc1nc(-c2cc(C)c(N[C@@H](C)c3ccc(F)cc3F)nn2)ccc1-n1cnc(C)c1 [Example 45, (S)—N-(1-(2,4-difluorophenyl)ethyl)-6-(6-methoxy-5-(4-methyl-1H-imidazol-1-yl)pyridin-2-yl)-4-methylpyridazin-3-amine]		did not decrease the NICD levels at all concentrations studied; also recorded: not inhibit Notch processing
38 nM	204 to 206 °C	COc1nc(-c2cc(C)c(NCCc3ccc(F)cc3)nn2)ccc1-n1cnc(C)c1 [Example 50, N-(4-fluorophenethyl)-6-(6-methoxy-5-(4-methyl-1H-imidazol-1-yl)pyridin-2-yl)-4-methylpyridazin-3-amine]		
188 nM	228 to 229 °C	COc1nc(-c2cc(C)c(NC(C)C)nn2)ccc1-n1cnc(C)c1 [Example 65, N-isopropyl-6-(6-methoxy-5-(4-methyl-1H-imidazol-1-yl)pyridin-2-yl)-4-methylpyridazin-3-amine]		
4.5 nM		CCC[C@H](Nc1nnc(-c2ccc(-n3cnc(C)c3)c(OC)n2)cc1C)c1ccccc1F [Example 86, (S)—N-(1-(2-fluorophenyl)butyl)-6-(6-methoxy-5-(4-methyl-1H-imidazol-1-yl)pyridin-2-yl)-4-methylpyridazin-3-amine]		
11.5 nM		COC[C@H](Nc1nnc(-c2ccc(-n3cnc(C)c3)c(OC)n2)cc1C)c1ccc(F)cc1 [Example 87, (R)—N-(1-(4-fluorophenyl)-2-methoxyethyl)-6-(6-methoxy-5-(4-methyl-1H-imidazol-1-yl)pyridin-2-yl)-4-methylpyridazin-3-amine]		
12 nM		CC[C@H](Nc1nnc(-c2ccc(-n3cnc(C)c3)c(OC)n2)cc1C)c1ccccc1F [Example 88, (S)—N-(1-(2-fluorophenyl)propyl)-6-(6-methoxy-5-(4-methyl-1H-imidazol-1-yl)pyridin-2-yl)-4-methylpyridazin-3-amine]		
5 nM		COc1nc(-c2cc(C)c(N[C@@H](C)c3cccc(C(F)(F)F)c3F)nn2)ccc1-n1cnc(C)c1 [Example 101, (S)—N-(1-(2-fluoro-3-(trifluoromethyl)phenyl)ethyl)-6-(6-methoxy-5-(4-methyl-1H-imidazol-1-yl)pyridin-2-yl)-4-methylpyridazin-3-amine]		
13 nM		COc1nc(-c2cc(C)c(N[C@H](C)c3ccc(F)cc3Cl)nn2)ccc1-n1cnc(C)c1 [Example 103, (R)—N-(1-(2-chloro-4-fluorophenyl)ethyl)-6-(6-methoxy-5-(4-methyl-1H-imidazol-1-yl)pyridin-2-yl)-4-methylpyridazin-3-amine]		

Further lines, the compound ahead of its results:

SMILES	IC50 (Aβ42)	melting point	Notch processing (NICD, Western blot) (Notch processing; H4-APP751 cells transfected with the NAE construct, different concentrations)	Notch processing (NICD levels, Western blot) (Notch processing)
COc1nc(-c2ccc(N[C@@H](C)c3ccc(F)cc3)nn2)ccc1-n1cnc(C)c1 [Compound 2, (S)—N-(1-(4-Fluorophenyl)ethyl)-6-(6-methoxy-5-(4-methyl-1H-imidazol-1-yl)pyridin-2-yl)pyridazin-3-amine]		96 to 102 °C		
C[C@H](NC(=O)Cc1cc(F)cc(F)c1)C(=O)N[C@H](C(=O)OC(C)(C)C)c1ccccc1 [DAPT, reference compound]			significantly inhibits Notch processing	significantly inhibits Notch processing
COc1nc(-c2cc(C(C)C)c(NCc3ccc(F)cc3)nn2)ccc1-n1cnc(C)c1 [Example 13, N-(4-fluorobenzyl)-4-isopropyl-6-(6-methoxy-5-(4-methyl-1H-imidazol-1-yl)pyridin-2-yl)pyridazin-3-amine]	21 nM	245 to 246 °C		
COc1nc(-c2ccc(NC(=O)c3ccc(F)cc3)nn2)ccc1-n1cnc(C)c1 [Example 24B, 4-Fluoro-N-(6-(6-methoxy-5-(4-methyl-1H-imidazol-1-yl)pyridin-2-yl)pyridazin-3-yl)benzamide]	> 10000 nM	> 250 °C		
COc1nc(-c2ccc(NCc3ccc(F)cc3)nn2)ccc1-n1cnc(C)c1 [Example 26, N-(4-fluorobenzyl)-6-(6-methoxy-5-(4-methyl-1H-imidazol-1-yl)pyridin-2-yl)pyridazin-3-amine]	36 nM	170 to 172 °C		
COc1nc(-c2nnc(N[C@@H](C)c3ccccc3)cc2C)ccc1-n1cnc(C)c1 [Example 28, (S)-6-(6-methoxy-5-(4-methyl-1H-imidazol-1-yl)pyridin-2-yl)-5-methyl-N-(1-phenylethyl)pyridazin-3-amine]	18 nM	140 to 143 °C		
COc1nc(-c2cc(C)c(N[C@@H](C)c3cc(F)cc(F)c3)nn2)ccc1-n1cnc(C)c1 [Example 46, (S)—N-(1-(3,5-difluorophenyl)ethyl)-6-(6-methoxy-5-(4-methyl-1H-imidazol-1-yl)pyridin-2-yl)-4-methylpyridazin-3-amine]	4.1 nM			did not decrease the NICD levels at all concentrations studied; also recorded: not inhibit Notch processing
COc1nc(-c2cc(C)c(NCCCc3ccc(F)cc3)nn2)ccc1-n1cnc(C)c1 [Example 73, N-(3-(4-fluorophenyl)propyl)-6-(6-methoxy-5-(4-methyl-1H-imidazol-1-yl)pyridin-2-yl)-4-methylpyridazin-3-amine]	26 nM	204 to 206 °C		
CC[C@H](Nc1nnc(-c2ccc(-n3cnc(C)c3)c(OC)n2)cc1C)c1ccc(C#N)cc1 [Example 84, (S)-4-(1-((6-(6-methoxy-5-(4-methyl-1H-imidazol-1-yl)pyridin-2-yl)-4-methylpyridazin-3-yl)amino)propyl)benzonitrile]	23 nM			
COc1nc(-c2cc(C)c(NC3CCC(F)(F)CC3)nn2)ccc1-n1cnc(C)c1 [Example 85, N-(4,4-difluorocyclohexyl)-6-(6-methoxy-5-(4-methyl-1H-imidazol-1-yl)pyridin-2-yl)-4-methyl pyridazin-3-amine]	70 nM			
COc1nc(-c2cc(C)c(N[C@@H](C)c3cccc(C)c3C)nn2)ccc1-n1cnc(C)c1 [Example 100, (S)—N-(1-(2,3-dimethylphenyl)ethyl)-6-(6-methoxy-5-(4-methyl-1H-imidazol-1-yl)pyridin-2-yl)-4-methylpyridazin-3-amine]	4 nM			
COc1nc(-c2cc(C)c(N[C@H](c3ccc(F)cc3)C(C)(C)O)nn2)ccc1-n1cnc(C)c1 [Example 102, (R)-1-(4-fluorophenyl)-1-((6-(6-methoxy-5-(4-methyl-1H-imidazol-1-yl)pyridin-2-yl)-4-methylpyridazin-3-yl)amino)-2-methylpropan-2-ol]	6 nM			
